Consider 2 compounds from US9051240B2, “Substituted 2-[2-(phenyl) ethylamino] alkaneamide derivatives and their use as sodium and/or calcium channel modulators” (Newron Pharmaceuticals S.P.A., priority 2007, dated 2015).

The target of experiment [1] is Na+ currents in rat cortical neurons. The experiment is described as follows: Patch clamp evaluation of Na+ currents blockade in rat cortical neurons. In kind it is cell-based. As to conditions: for pKi: calculated from Kr and Kdep, read-out: Ki (apparent affinity for the inactivated state). As for the experimental part: Cortical neurons were prepared from embryonic Wistar rats (E17-E19). A female rat at date 17-19 of pregnancy was anesthetized and sacrificed. The fetuses (n=4-5) were dissected and placed in ice-cold Hank's solution (Hank's solution (Life tech.14170-088)+glucose 30%+Pen-Strep 100× (Life Tech. 15140-122) 100U-100 μg/ml and Hepes-NaOH 5 mM). The uterus and placenta were removed, the fetuses were decapitated and the heads were placed in ice-cold Hank's solution. Cells were counted and diluted in Neurobasal medium to a concentration of 400000 cells per poly-D-lysine 5 μg/ml treated Petri dish. Cortical neurons were used from day 6th till day 11th after plating, and once a week Neurobasal medium was changed. Experiments on cortical neurons were carried out using standard whole cell patch clamp methods (Hamill et al., Pfugers Arch., 1981 August, 391(12), 85-100). Membrane currents were recorded and filtered at 5 kHz with an Axon Axopatch 200B amplifier and data digitized with an Axon Digidata 1322A (Axon Instruments, CA, USA). Protocol playing and data acquisition were controlled online with Axon pClamp8 software. Measuring and reference electrodes were AgCl-Ag electrodes. A Sutter Instrument P-87 Puller (CA, USA) was used for pulling patch clamp pipettes with a resistance of 2-3 MΩ from Harward borosilicate glass tubes. Cells were continuously superfused with extracellular solutions, using a solution changer Biologic RSC-200. To test the effect of compounds on sodium currents in cortical neurons, cells were clamped at -90 mV, then a two step protocol was used to determine the voltage dependence of the block. […] Tonic block of resting and depolarized currents at a given drug concentration, was calculated as the difference between the peak Na^+ current in the control external bath solution and peak currents with the test substance divided by control peak. Drug concentration-inhibition curves were obtained by plotting tonic blocks in the resting and depolarized condition, versus drug concentrations. Dose-response curves were fitted to the tonic block data, according to the logistic equation: […] Control bath solution contained (mM): […] Internal pipette solution consisted of (mM): […] Compounds were dissolved as stock solutions (20 mM) in DMSO. They were diluted to the final concentrations in the external solution.

Another experiment has as its target MAO-B (Rattus norvegicus (Rat), UniProt P19643). Kind of experiment: In vitro MAO-B enzyme activity assay (radioenzymatic, rat brain mitochondria). In kind it is biochemical. Conditions: 14C-PEA 0.5 μM. As for the experimental part:
Male Wistar rats (Harlan, Italy weighing 175-200 g) were sacrificed under light anaesthesia and brains were rapidly removed and homogenized in 8 volumes of ice-cold 0.32 M sucrose buffer containing 0.1 M EDTA, pH 7.4. The crude homogenate was centrifuged at 2220 rpm for 10 minutes and the supernatant recovered. The pellet was homogenized and centrifuged again. The two supernatants were pooled and centrifuged at 9250 rpm for 10 minutes at +4° C. The pellet was resuspended in fresh buffer and centrifuged at 11250 rpm for 10 minutes at +4° C. The resulting pellet was stored at −80° C. The enzyme activity was assessed with a radioenzymatic assay using the substrate ^14C-phenylethylamine (PEA) specific for MAO-B. The mitochondrial pellet (500 μg protein) was resuspended in 0.1 M phosphate buffer (pH 7.4). 200 μl of the suspension were added to a 50 μl solution of the test compound or buffer, and incubated for 30 min at 37° C. (preincubation) then the substrate (50 μl) was added. The incubation was carried out for 10 minutes at 37° C. (^14C-PEA, 0.5 μM). The reaction was stopped by adding 0.2 ml of perchloric acid. After centrifugation, the deaminated metabolites were extracted with 3 ml of toluene and the radioactive organic phase containing the neutral and/or acidic metabolites formed as a result of MAO-B activity was measured by liquid scintillation spectrometry at 90% efficiency. The MAO-B activity was expressed as nmoles of substrate transformed/mg protein/min.

In experiment [2] the test system is mice. The experiment is described as follows: Formalin test. It is filed as in vivo. Conditions: Mus musculus, po. As for the experimental part: According to a modified protocol from Rosland et al. (Rosland J. H., Tjolsen A., Maehle B., Hole K. Pain (1990) 42: 235-242), mice were injected subcutaneously (s.c.) with 20 μl of 2.7% solution of formalin into the plantar surface of left hindpaw and placed immediately into clear PVC observation chambers (23×12×13 cm). Pain behaviour was quantified by counting the cumulative licking time (s) of the injected paw. Measurements were taken during the early phase (0-5 min) and late phase (20-40 min) after formalin injection (Tjolsen A., Berge O. G., Hunskaar S., Rosland J. H., Hole K. Pain (1992) 51: 5-17).
The test compound was administered p.o. or s.c. 5-45 minutes before formalin injection in a volume of 10 ml/kg body weight to groups of 10 mice per dose. Control group was treated with vehicle.

Experiment [3] concerns mice. The experiment is described as follows: Maximal electroshock test (MES) in mice. Conditions: for ED50: Mus musculus. In kind it is in vivo. The text has this:
The maximal electroshock test (MES) is used commonly in the screening of anti-epileptic drugs in rodent models.
Animals and Apparatus: Male CD1 mice weighing 25 g were used. The procedure described by White et al. (White H. S., Woodhead J. H., Franklin M. R., Swinyard E. A., and Wolf H. H. Antiepileptic Drugs (1995) 4th ed: 99-110, Raven Press, Ltd., New York) was followed. An Ugo Basile electroconvulsive generator (Model ECT UNIT 7801) was used to deliver an electrical stimulus sufficient to produce a hindlimb tonic extensor response in at least 97% of control animals. The stimulus was delivered intra-aurally through clip electrodes in mice (0.7 s of a 40 mA shock, with a pulse train of 80 Hz having a pulse duration of 0.4 ms). The acute effect of compounds administered intraperitoneally (i.p.), subcutaneously (s.c.), intravenously (i.v.) or orally (p.o.) 5-120 minutes before MES induction were examined and compared with a vehicle control group. Ten mice were studied per group. Complete suppression of the hindlimb tonic extensor component of seizures was taken as evidence of anticonvulsant activity.
The compounds of the invention were administered p.o. or i.v., at the doses of 0.1-100 mg/kg.
(In the maximal electroshock model the usual endpoint is tonic extension of the hind limbs.)

The mark [4] stands for this setting: preconditioning potential -110 mV, read-out: IC50 resting (Kr).
[5] abbreviates: preconditioning potential ~-50 mV, read-out: IC50 depolarized.

Structures are written as SMILES. pIC50, pKi: −log10 of the molar value. Like-named read-outs stand apart in the source and are kept apart here.

Sequence of MAO-B (P19643 whole entry): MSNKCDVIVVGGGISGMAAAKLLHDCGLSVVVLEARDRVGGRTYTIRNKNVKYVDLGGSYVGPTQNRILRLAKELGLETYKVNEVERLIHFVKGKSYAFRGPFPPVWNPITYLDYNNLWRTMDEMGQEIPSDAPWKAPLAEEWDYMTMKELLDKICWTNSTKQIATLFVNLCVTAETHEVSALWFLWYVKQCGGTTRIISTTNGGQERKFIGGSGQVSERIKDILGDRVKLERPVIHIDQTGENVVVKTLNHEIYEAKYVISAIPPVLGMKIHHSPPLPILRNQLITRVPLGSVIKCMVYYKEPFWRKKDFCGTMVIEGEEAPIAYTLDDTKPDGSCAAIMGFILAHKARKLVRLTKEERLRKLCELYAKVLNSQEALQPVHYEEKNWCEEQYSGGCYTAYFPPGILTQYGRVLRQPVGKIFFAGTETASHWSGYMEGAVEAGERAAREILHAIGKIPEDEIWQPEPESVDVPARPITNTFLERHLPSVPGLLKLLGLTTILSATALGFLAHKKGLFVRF

In the case of `CCCCOc1cccc(CCNCC(=O)N(C)C)c1.Cl` [2-[2-(3-Butoxyphenyl)-ethylamino]-N,N-dimethylacetamide hydrochloride], in experiment [1], the pKi (commonly the negative decadic logarithm of the Ki, by convention in mol/L) is 6.40. Also, the pIC50 (as a rule, −log10 of the IC50, conventionally taken in molar units) in experiment [1] (setting [4]) is 4.60; in experiment [1] (setting [5]), 6.10; against MAO-B, 3.64. The ED50 with mice [2] worked out at 14.9 mg/kg; in the experiment with mice [3] (iv, mice, MES, i.v., read-out: MES ED50 mg/kg i.v.), 0.2 mg/kg; in the experiment with mice [3] (po, mice, MES, p.o., read-out: ED50 (mg/kg p.o.)), 4.3 mg/kg. For the same compound, the “% protection 10 mg/kg p.o.” value in the experiment with mice [3] (mice, MES, 10 mg/kg p.o.) is 100%.
For the compound `C[C@H](NCc1ccc(OCc2ccccc2F)cc1)C(N)=O` [ralfinamide, (S)-(+)-2-[4-(2-fluorobenzyloxy)-benzylamino]-propanamide, reference compound], the pKi in experiment [1] was 5.33. Also, the pIC50 in experiment [1] (setting [4]) was below 4.00; in experiment [1] (setting [5]), 5.05; in experiment [1] (resting condition, figure in parentheses after >100, read-out: IC50 resting (Kr), value in parentheses), 3.67; against MAO-B, 6.70. The ED50 in the experiment on mice [2] came out at 29.3 mg/kg; with mice [3] (iv, read-out: MES ED50 mg/kg i.v.), 2.7 mg/kg.
